Measured values published in publication PMC10673058, “In Silico and In Vitro Search for Dual Inhibitors of the Trypanosoma brucei and Leishmania major Pteridine Reductase 1 and Dihydrofolate Reductase” (Molecules, 2023).
Read-outs that look alike come from different tables or passages of the source.

Columns and labels:
[1] = target: T1, TbDHFR (Trypanosoma brucei brucei, UniProt Q27783); assay: Spectrophotometric enzyme inhibition assay, recombinant TbDHFR; type: biochemical
T1 construct: pET 11D::TbDHFRHis vector design for the recombinant overexpression of TbDHFR in E. coli; His; made in house; host or cells: E. coli BL21(DE3), vector pET 11D::TbDHFRHis
T1 sequence (Q27783 28-238 limits assumed): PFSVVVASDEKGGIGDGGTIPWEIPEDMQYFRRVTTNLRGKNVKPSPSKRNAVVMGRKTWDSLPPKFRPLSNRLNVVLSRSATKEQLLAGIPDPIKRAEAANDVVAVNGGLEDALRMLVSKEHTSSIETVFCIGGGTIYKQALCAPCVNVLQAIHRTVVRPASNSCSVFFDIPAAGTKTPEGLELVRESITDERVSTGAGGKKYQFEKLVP
Description: (§1) Based on the in vitro assays against TbPTR1 and LmPTR1 performed in the previous works of our group, as well as the in silico results obtained from the current study, a total of 47 natural products were tested against the target enzymes.
The saturating conditions for TbDHFR and LmDHFR were determined using the diagrams depicted in Figures S17 and S19 in the Supplementary Materials.
(§2) The inhibitory effect of the selected natural products was investigated by testing the DMSO solution of each compound at a constant concentration of 100 μM for TbPTR1 and 50 μM for LmPTR1, TbDHFR, and LmDHFR, as well as hDHFR. The concentrations of the cofactor and substrates were set at the previously determined saturating conditions (Section 4.2.5). Each test compound was incubated for 20 min with the respective enzyme and NADPH to ensure a sufficient interaction time before the reaction was induced by the addition of the substrate. The enzymatic activity was determined in duplicates and correlated with a reference that contained just DMSO, instead of an inhibitor. The enzymatic activity of the reference was normalized to 100%.
(§3) The half-maximal inhibitory concentration (IC50) of the natural products was determined in triplicate, using at least five different inhibitor concentrations against a reference containing no inhibitor. The enzymatic activity was documented and analyzed and the IC50 value was determined by nonlinear regression using GraphPad Prism 9 (GraphPad Software Inc., La Jolla, CA, USA).

[2] = target: T2, TbPTR1 (Trypanosoma brucei brucei, UniProt O76290); assay: Spectrophotometric enzyme inhibition assay, recombinant TbPTR1; type: biochemical; conditions: for EC50: read-out: EC50 TbPTR1 (footnote a)
T2 construct: His6 (N); made in house; host or cells: E. coli BL21 (DE3), vector pET 15b::TbPTR1His (strain from the group of M. Paola Costi, Modena)
T2 sequence (O76290 1-268): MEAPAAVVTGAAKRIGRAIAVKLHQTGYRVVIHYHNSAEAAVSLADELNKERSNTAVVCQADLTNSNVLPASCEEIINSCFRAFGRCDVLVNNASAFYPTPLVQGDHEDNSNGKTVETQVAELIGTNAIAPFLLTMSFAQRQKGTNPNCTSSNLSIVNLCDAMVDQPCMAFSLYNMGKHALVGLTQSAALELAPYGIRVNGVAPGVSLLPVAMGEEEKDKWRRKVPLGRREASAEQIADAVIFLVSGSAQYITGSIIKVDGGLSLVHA
Description: as §1, with “enzymes. […] The concentration-effect curves for the IC50 and EC50 values that were obtained in the present study are depicted in Supplementary Materials Figures S21–S42.” for “enzymes.”
(§4) The used TbPTR1 concentration was 3.23 mg/mL, with a specific activity of 0.03 U/mg. The measurements were carried out using the enzyme’s individual saturating concentrations for folic acid (8 μM) and NADPH (150 μM) in Buffer A (50 mM Tris/HCl (pH 7.6), 250 mM NaCl). For LmPTR1, the protein concentration was 5.02 mg/mL and the specific activity was calculated to be 0.29 U/mg. Buffer B (50 mM NaH2PO4 (pH 6.0), 100 mM NaCl) was used for all LmPTR1 measurements and the saturating concentrations amounted to 50 μM of folic acid and 200 μM of NADPH. The saturating conditions of the PTR1 enzymes were determined using the diagrams depicted in Figures S16 and S18 in the Supplementary Materials.
as §2, §3

[3] = target: T3, LmPTR1 (Leishmania major, UniProt Q01782); assay: Spectrophotometric enzyme inhibition assay, recombinant LmPTR1; type: biochemical
T3 construct: His6 (N); made in house; host or cells: E. coli BL21 (DE3), vector pET 15b::LmPTR1His (strain from the group of M. Paola Costi, Modena)
T3 sequence (Q01782 1-288): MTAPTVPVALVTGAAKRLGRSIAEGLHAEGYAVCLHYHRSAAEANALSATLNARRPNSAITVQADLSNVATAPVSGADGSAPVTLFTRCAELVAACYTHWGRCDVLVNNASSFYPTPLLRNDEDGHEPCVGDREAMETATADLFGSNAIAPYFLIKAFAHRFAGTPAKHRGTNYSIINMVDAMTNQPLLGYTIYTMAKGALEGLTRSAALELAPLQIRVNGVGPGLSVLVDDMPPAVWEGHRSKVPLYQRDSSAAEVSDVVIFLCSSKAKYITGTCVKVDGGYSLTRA
Description: as §1, with “enzymes. […] The concentration-effect curves for the IC50 and EC50 values that were obtained in the present study are depicted in Supplementary Materials Figures S21–S42.” for “enzymes.”
as §4, §2, §3

[4] = target: T4, LmDHFR (Leishmania major, UniProt P07382); assay: Spectrophotometric enzyme inhibition assay, recombinant LmDHFR; type: biochemical
T4 construct: The DNA fragment encoding LmDHFR was amplified by Phusion DNA polymerase; His6 (N); made in house; host or cells: E. coli BL21(DE3), vector pET 11D::LmDHFRHis
T4 sequence (P07382 26-229 limits assumed): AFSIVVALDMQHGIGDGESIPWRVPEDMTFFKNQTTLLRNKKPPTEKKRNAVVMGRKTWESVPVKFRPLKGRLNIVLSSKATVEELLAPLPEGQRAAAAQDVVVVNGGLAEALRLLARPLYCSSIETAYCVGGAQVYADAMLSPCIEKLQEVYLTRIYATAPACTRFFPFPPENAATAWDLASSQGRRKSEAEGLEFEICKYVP
Description: as §1, with “enzymes. […] The concentration-effect curves for the IC50 and EC50 values that were obtained in the present study are depicted in Supplementary Materials Figures S21–S42.” for “enzymes.”
The TbDHFR concentration was measured to be 0.04 mg/mL and a specific activity of 38.1 U/mg was calculated. The concentration of LmDHFR was 0.05 mg/mL with a specific activity of 56.2 U/mg. All measurements were carried out using the saturating concentrations for dihydrofolate (50 μM) and NADPH (150 μM) in Buffer C (50 mM Tris/HCl (pH 7.6), 250 mM NaCl, 10 mM BME). The saturating conditions for TbDHFR and LmDHFR were determined using the diagrams depicted in Figures S17 and S19 in the Supplementary Materials.
as §2, §3

[5] = target: T5, hDHFR (Homo sapiens, UniProt P00374); assay: Spectrophotometric enzyme inhibition assay, recombinant hDHFR (selectivity); type: biochemical; conditions: for inhibition at 50 µM: set compound concentration of 50 μM, read-out: relative inhibition of hDHFR
T5 construct: His; host or cells: E. coli BL21 (DE3), vector pET 15b::hDHFRHis
T5 sequence (P00374 1-187): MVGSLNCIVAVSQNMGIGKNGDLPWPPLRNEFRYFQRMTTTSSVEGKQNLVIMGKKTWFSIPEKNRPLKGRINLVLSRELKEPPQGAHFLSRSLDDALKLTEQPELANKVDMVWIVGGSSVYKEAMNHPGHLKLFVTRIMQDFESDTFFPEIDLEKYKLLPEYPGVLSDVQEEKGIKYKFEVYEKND
Description: For 15 compounds, there was enough substance available to be tested in selectivity studies against hDHFR.
The used hDHFR concentration was 0.64 mg/mL, with a specific activity of 0.62 U/mg. All measurements were carried out using the saturating concentrations for dihydrofolate (100 μM) and NADPH (50 μM) in Buffer C (50 mM Tris/HCl (pH 7.6), 250 mM NaCl, 10 mM BME). The saturating conditions for hDHFR were determined using the diagrams depicted in Figure S20 in the Supplementary Materials.
as §2, §3

[6] = target: T3, LmPTR1; parameters: method as in PMID 29211037; conditions: from previous study; read-out: IC50 LmPTR1; cited from earlier work

Structure (SMILES)	IC50 ([1]; read-out: IC50 TbDHFR)	IC50 ([2]; read-out: IC50 TbPTR1)	IC50 ([3]; read-out: IC50 LmPTR1)	IC50 ([4]; read-out: IC50 LmDHFR)	IC50 [5]	inhibition at 50 µM [5]	EC50 [2]	IC50 [4]	IC50 [2]	IC50 [6]	IC50 [3]	IC50 [1]
COc1ccc2c(c1)CCN=C2Cc1cc(OCc2ccccc2)c(OC)cc1C [Compound 19]	> 50 µM	75.1 µM										
COc1cc(C2OC(=O)C3C(c4ccc(O)c(OC)c4)OC(=O)C23)ccc1O (centres unmarked) [Compound 22]	> 50 µM		30.2 µM	> 50 µM	> 50 µM		37.8 µM					
O=C(/C=C/c1ccc(O[C@@H]2O[C@H](CO)[C@@H](O)[C@H](O)[C@H]2O)cc1)c1ccc(O)cc1O [Compound 7, isoliquiritin]					> 50 µM			46.2 µM	> 100 µM	84.5 µM		
OC[C@H]1O[C@@H](Oc2c(O)cc(O)cc2/C=C/c2ccc(O)cc2)[C@H](O)[C@@H](O)[C@@H]1O [Compound 10]	> 50 µM	83.6 µM	> 50 µM	> 50 µM								
CC(C)=CCc1c(O)cc2oc3cc(O)c(O)c(CC=C(C)C)c3c(=O)c2c1O [Compound 14, g-mangostin]					2.7 µM	> 50%		1.5 µM	71 µM		10 µM	0.2 µM

The remaining compounds from weak to strong by IC50 ([1]; read-out: IC50 TbDHFR), led by results:

IC50 ([1]; read-out: IC50 TbDHFR)	IC50 ([2]; read-out: IC50 TbPTR1)	IC50 ([3]; read-out: IC50 LmPTR1)	IC50 ([4]; read-out: IC50 LmDHFR)	IC50 [5]	inhibition at 50 µM [5]	EC50 [2]	Structure (SMILES)	IC50 [4]	IC50 [2]	IC50 [6]	IC50 [3]	IC50 [1]
2.9 µM		> 50 µM				32.4 µM	CC(C)=CCC/C(C)=C/COc1ccc2oc3cc(O)cc(O)c3c(=O)c2c1 [Compound 15]					
2.1 µM		> 50 µM		19.8 µM	> 50%	36.8 µM	COc1c(CC=C(C)C)c(O)c([C@H](CC(C)C)c2c(O)c(CC=C(C)C)c(O)c(C(C)=O)c2O)c(O)c1C(C)=O [Compound 21, acrovestone]					
0.2 µM	20.1 µM	10.2 µM	2.6 µM	2.4 µM	> 50%		CCC/C=C\C/C=C\CCCCCCCc1cccc(O)c1C(=O)O [Compound 11]					
